Where two headings read alike, the source gives them in different places.
Columns and labels:
Assay in all cases: MIC of scopularin, agar dilution assay (K-10 agar)
Format in all cases: cell-based
[1] = test system: Candida krusei; details: Pichia kudriavzevii
Description: (§1) The following methodology was used to determine the miniumum inhibitory concentration (hereinafter referred to as MIC) of scopularin.
(§2) The aerobic test organisms were grown in approximately 15-20ml of Antibiotic Assay Broth (Difco) by inoculating (in tubes) the broth with a loopful of the organism from a BHI (Difco) agar slant. The inoculated tubes were incubated at 37° C. for 18 to 24 hours. These cultures are assumed to contain 10^7 colony forming units (CFU) per ml and the cultures were diluted 1:100 to give a final inoculum level of 10^5 CFU; dilutions were made with Yeast Beef Broth (Difco).
(§3) Scopularin was dissolved in an appropriate diluent at a concentration of 1,000 μg/ml. Two-fold dilutions were made in Yeast Beef Broth (Difco), resulting in a range from 1000 µg/ml to 0.5 μg/ml. 1.5 ml of each dilution was placed into individual petri dishes to which 13.5ml of K-10 agar was added. The composition of K-10 agar is:
(§4) The final drug concentration in the agar ranged from 100 μg/ml to 0.05 μg/ml. Organism growth control plates containing agar only were prepared and inoculated before and after the test plates. The organisms were applied to the agar surface of each plate with a Denly Multipoint Inoculator (which delivers approximately 0.001 ml of each organism) resulting in a final inoculum of 10^4 CFU on the agar surface.
(§5) The plates were incubated at 37° C. for 18 hours and the MICs determined. The MIC is the lowest concentration of compound inhibiting growth of the organism.

[2] = test system: Trichophyton rubrum; details: SC9199, 18 h; Trichophyton rubrum SC 9199
Description: as §1, §2, §3, §4, §5

[3] = test system: Microsporum canis; details: SC9237, 18 h; Microsporum canis SC 9237
Description: as §1, §2, §3, §4, §5

[4] = test system: Candida tropicalis
Description: as §1, §2, §3, §4, §5

[5] = test system: Candida albicans
Description: as §1, §2, §3, §4, §5

[6] = test system: Candida guilliermondii; details: Meyerozyma guilliermondii
Description: as §1, §2, §3, §4, §5

[7] = test system: Candida stellatoidea; details: Candida albicans, SC2211, 18 h; Candida stellatoidea SC 2211
Description: as §1, §2, §3, §4, §5

[8] = test system: Candida parakrusei
Description: as §1, §2, §3, §4, §5

[9] = test system: Trichophyton mentagrophytes; details: SC2637, 18 h; Trichophyton mentagrophytes SC 2637
Description: as §1, §2, §3, §4, §5

[10] = test system: Candida glabrata; details: Nakaseomyces glabratus, SC11, 18 h; Candida glabrata SC 11,267
Description: as §1, §2, §3, §4, §5

[11] = test system: Aspergillus fumigatus; details: SC2100, 18 h; Aspergillus fumigatus SC 2100
Description: as §1, §2, §3, §4, §5

[12] = test system: Candida pseudotropicalis; details: Kluyveromyces marxianus, SC11, 18 h; Candida pseudotropicalis SC 11,241
Description: as §1, §2, §3, §4, §5

[13] = test system: Epidermophyton floccosum; details: SC9185, 18 h; Epidermophyton floccosum SC 9185
Description: as §1, §2, §3, §4, §5

With CCC/C=C/C=C/C=C(\C)[C@H]1OC[C@@H](C)[C@@H](OC)[C@@H]1OC(=O)CN (relative stereo) [Scopularin, (2α, 3β, 4α, 5α)-Tetrahydro-4-methoxy-5-methyl-2-(1-methyl-1,3,5-nonatrienyl)-2H-pyran-3-ol, aminoacetate ester] the MIC ([1]; SC2967, 18 h) was 0.4 µg/mL, the MIC ([1]; SC2968, 18 h, Candida krusei SC 2968, read-out: MIC) was 1.6 µg/mL and the MIC ([1]; SC2969, 18 h, Candida krusei SC 2969, read-out: MIC) was 1.6 µg/mL. For the same molecule, the MIC [2] was 0.4 µg/mL, the MIC [3] was 0.4 µg/mL and the MIC ([4]; SC10, 18 h, Candida tropicalis SC 10,597) was 25 µg/mL. The MIC ([4]; SC2963, 18 h, Candida tropicalis SC 2963 (AmphoB^R)) was 6.3 µg/mL, the MIC ([4]; SC8159, 18 h, Candida tropicalis SC 8159) was 25 µg/mL and the MIC ([4]; SC9861, 18 h, Candida tropicalis SC 9861 (AmphoB^R)) was 25 µg/mL. For the same molecule, the MIC ([5]; SC10, 18 h, Candida albicans SC 10,102) was 100 µg/mL, the MIC ([5]; SC10, 18 h, Candida albicans SC 10,580) was 50 µg/mL and the MIC ([5]; SC10, 18 h, Candida albicans SC 10,584) was 25 µg/mL. It also gave an MIC ([5]; SC10, 18 h, Candida albicans SC 10,585) of 50 µg/mL, an MIC ([5]; SC11, 18 h, Candida albicans SC 11,422) of 50 µg/mL and an MIC ([5]; SC12, 18 h, Candida albicans SC 12,734 (Bacilysin^R)) of 100 µg/mL. It also gave an MIC ([5]; SC14, 18 h, Candida albicans SC 14,021 (Aculeacin^R)) of 50 µg/mL, an MIC ([5]; SC5314, 18 h, Candida albicans SC 5314) of 50 µg/mL and an MIC ([5]; SC9177, 18 h, Candida albicans SC 9177) of 50 µg/mL. It also gave an MIC ([5]; SC9721, 18 h, Candida albicans SC 9721) of 50 µg/mL, an MIC ([6]; SC2210, 18 h, Candida guilliermondii SC 2210) of 12.5 µg/mL and an MIC ([6]; SC2996, 18 h, Candida guilliermondii SC 2996) of 0.4 µg/mL. The MIC [7] was 25 µg/mL, the MIC ([8]; SC2621, 18 h, Candida parakrusei SC 2621) was 0.8 µg/mL and the MIC ([8]; SC2966, 18 h, Candida parakrusei SC 2966) was 1.6 µg/mL. The MIC [9] was 0.2 µg/mL, the MIC [10] was 25 µg/mL and the MIC [11] was 50 µg/mL. The MIC [12] was 25 µg/mL and the MIC [13] was 0.2 µg/mL.
